This is an account of results in US20190241660A1, “IMMUNE-STIMULATING PEPTIDES AND CHECKPOINT INHIBITORS, AND USES THEREOF FOR TREATING CANCER” (INTENDET SERVICES, LLC, priority 2017, published 2019).

Data set [1] deals with immune cell profile in tumors. Put plainly: Immune profiles of tumors by FACS analysis in lymphoma bearing mice. Format: in vivo, C57BL/6 mice. An excerpt: (§1) In this study the immune cell profile in tumors and blood in lymphoma bearing mice was compared for a 3 times weekly dose of INT-151 and anti-CTLA-4 alone to the combination of 3 times weekly INT-151 plus anti-CTLA-4.
(§2) On day 17 after treatment began, when tumors reached a volume of 500-600 mm^3, mice were sacrificed and tumors and blood was collected for Fluorescent Activated Cell Sorting (FACS) analysis to determine the following immune cell types as listed in the table below:
(§3) Animals were to be monitored individually. Randomization into treatment groups was conducted when tumors reached an average of 43 mm^3 (n=6). Mice were euthanized after 17 days to collect tumors and blood for FACS analysis.

Data set [2] relates to E.G7-OVA murine lymphoma cells. Put plainly: Pilot dose response study, INT-151 once vs 3× weekly alone and with anti-CTLA-4 (E.G7-OVA-e215 protocol).
The test system of data set [3] is E.G7-OVA murine lymphoma cells. Nature of the data set: E.G7-OVA syngeneic mouse lymphoma model, INT-151 with anti-CTLA-4 (E.G7-OVA-e214 protocol).
Data set [4] concerns E.G7-OVA murine lymphoma cells. Nature of the data set: Tumor volume in immune cell profile study of established tumors (E.G7-OVA-e217 protocol). Type of data set: in vivo, C57BL/6 mice. Particulars: at study end; INT-151 100 μg/animal 3 times a week; anti-CTLA-4 100 μg then 50 μg ×2; n=6; FIG. 6.
Description: as §1, §2, §3

In data set [5] the test system is immune cell profile in peripheral blood. Nature of the data set: Immune profiles of peripheral blood by FACS analysis in lymphoma bearing mice. Format: in vivo, C57BL/6 mice.
Description: as §1, §2, §3

The test system of data set [6] is T cell. Particulars: in the presence of tetanus toxoid or concanavalin A; Sinha 1988; cited from earlier work.
[7] abbreviates: INT-151 100 μg/animal 1× weekly (alone or with anti-CTLA-4 days 6, 9, 12), only animals with tumor take.
The mark [8] stands for this setting: INT-151 100 μg/animal 3× weekly (alone or with anti-CTLA-4), only animals with tumor take.
Where [9] appears, read: INT-151 in combination with anti-CTLA-4.

As to `N[C@@H](Cc1ccc(O)cc1)C(=O)NCC(=O)O` [INT-151, tyrosyl-glycine], in data set [1] (compared to controls, FIG. 7), the “CD4+T cells” value was “unchanged”, the “CD8+ T cell population” value is reported as “did not affect”, the M1 macrophage population result is “decreased” and the M2 macrophage population result is given as “increasing”. Besides, in data set [1] (compared to controls, FIG. 7), the “granulocytic myeloid suppressor cells” value is reported as “unchanged” and the “regulatory T cells” value is reported as “did not affect”. Further, the “ratio of CD8+T/Treg” value in data set [1] (control group 3.2) was 2.5. In data set [2] (setting [7]), the “% Alive on day 26” value turned out to be 100%, the “% Alive on day 29” value was determined as 100%, the “% Alive on day 33” value was 60% and the “% Alive on day 36” value was determined as 20%. The “% Alive on day 43” value in data set [2] (setting [7]) is 0%. Also, in data set [2] (setting [8]), the “% Alive on day 26” value is recorded as 100%, the “% Alive on day 29” value is reported as 100%, the “% Alive on day 33” value is 80% and the “% Alive on day 36” value is 40%. In addition, in data set [2] (setting [8]), the “% Alive on day 40” value came to 30% and the “% Alive on day 43” value is on record as 0%. For the same compound, in data set [2] (INT-151 3 times weekly, alone or with anti-CTLA-4, FIG. 5), the “clinical improvement (median tumor volume and survival)” value is “greater clinical improvement”. In data set [2] (setting [9]), the “synergy with anti-CTLA-4 on survival” value was “synergizes”. The tolerability result in data set [2] (each treatment group) was “well tolerated”. The “synergy with anti-CTLA-4 on survival” value in data set [3] (setting [9]) is “acts synergistically”. Further, in data set [3] (compared to control, FIG. 3, FIG. 4), the overall survival entry is listed as “not INT-151, demonstrated improved overall survival”. The “body-weight (clinical improvement)” value in data set [3] (compared to untreated Group 1, FIG. 2) is “slight positive clinical improvement”. For the same compound, the “median tumor volume growth / tumor size” value in data set [3] (compared to untreated Group 1, INT-151 100 μg/animal i.p. weekly from Day 6, anti-CTLA-4 Days 6, 9, 12, FIG. 1) is “slight positive clinical improvement”. Moreover, in data set [4], the Median tumor volumes was 831.0 mm^3. Moreover, in data set [5] (compared to controls, FIG. 8), the “CD4+ T cell population” value is listed as “did not affect”, the “CD8+ T cell population” value was “did not affect”, the M1 macrophage population result is on record as “unchanged” and the M2 macrophage population entry is “elevated”. Moreover, in data set [5] (compared to controls, FIG. 8), the “Monocytic myeloid suppressor cells” value is given as “not affected”, the “granulocytic MDSCs” value is on record as “reduced”, the “regulatory T cells” value is recorded as “did not affect” and the total macrophage population entry is “increased”. Moreover, in data set [5] (controls 8.4), the “ratio of CD8+T/Treg” value turned out to be 6.4.
With `CC(C)CC(NC(=O)C(Cc1ccccc1)NC(=O)CNC(=O)CNC(=O)C(N)Cc1ccc(O)cc1)C(=O)O` (stereo not shown) [leu-enkephalin, tyr-gly-gly-phe-leu], the T cell proliferation entry in data set [6] is “elicit T cell proliferation”.
For tyr-gly-gly-phe-met [met-enkephalin], the T cell proliferation entry in data set [6] is “elicit T cell proliferation”.
